In test [1] the target is T1, Full-length human Chk1 protein (Homo sapiens, UniProt O14757).
T1 construct: purchased Carna Biosciences, Inc. 02-117
T1 sequence (O14757 1-476): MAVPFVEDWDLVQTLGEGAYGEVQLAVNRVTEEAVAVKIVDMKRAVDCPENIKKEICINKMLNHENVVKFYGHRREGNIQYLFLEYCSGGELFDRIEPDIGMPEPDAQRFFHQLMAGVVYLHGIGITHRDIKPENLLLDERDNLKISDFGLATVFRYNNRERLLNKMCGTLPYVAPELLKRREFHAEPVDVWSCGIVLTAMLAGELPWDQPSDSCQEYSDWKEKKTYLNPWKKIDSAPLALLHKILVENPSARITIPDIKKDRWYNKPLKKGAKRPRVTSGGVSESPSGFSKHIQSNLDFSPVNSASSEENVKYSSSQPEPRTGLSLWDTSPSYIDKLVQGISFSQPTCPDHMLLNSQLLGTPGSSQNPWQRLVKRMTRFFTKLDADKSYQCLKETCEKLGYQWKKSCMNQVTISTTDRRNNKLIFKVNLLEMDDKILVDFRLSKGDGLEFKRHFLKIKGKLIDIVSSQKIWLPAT
Kind of test: Kinase HTRF biochemical assay (HTRF KinEASE), Chk1 enzyme activity. Conditions: full-length human Chk1, ATP 1 mM, 60 minutes at room temperature. Summed up: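 Full-length human Chk1 (0.012 ng/μL) in buffer with 5 mM MgCl2 and 1 mM DTT, preincubated with compound 10 min at room temperature; reaction with 120 nM biotinylated STK substrate 1 and 1 mM ATP for 60 min at room temperature. HTRF detection via cryptate antibody/streptavidin-XL665; IC50 from 10-point duplicate curves.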
A general note: Time-resolved FRET reads energy transfer from a long-lived donor to a nearby acceptor.

Test [2] has as its system p-CHK1 (Ser345). Kind of test: AlphaLISA SureFire Ultra p-CHK1 (Ser345) cellular assay in HT29 cells. In kind it is cell-based. Conditions: Homo sapiens, HT-29, 16 h at 37° C. A digest of the protocol:
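HT29 cells treated with compounds over a 10-point, 3-fold dilution series for 16 h at 37° C., then lysed; p-CHK1 (Ser345) in lysates measured by AlphaLISA SureFire Ultra (acceptor and donor steps 1 h each at room temperature). IC50 from dose-response curve fits.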
On the technique in general: Bead proximity is the source of the signal in Alpha formats.

Some results are limits rather than exact numbers.

A word on the IC50: it is the point on the concentration scale where inhibition reaches its midpoint. Low values mean greater potency, high ones weaker potency. Consider `COc1cc(F)cc(O[C@H]2CC[C@H](N)CC2)c1-c1cc(Nc2cnc(C#N)cn2)n[nH]1` [Example 2-4, 5-((5-(2-(((lr,4r)-4-aminocyclohexyl)oxy)-4-fluoro-6-methoxyphenyl)-1 H-pyrazol-3-yl)amino)pyrazine-2-carbonitrile], for which the figures for the IC50 in test [1] and in test [2] were not above 10 nM and not above 50 nM, respectively.
The like results for `N#Cc1cnc(Nc2cc(-c3ccccc3O[C@@H]3CC[C@@H](N)C3)[nH]n2)cn1` (stereo in doubt) [Example 1-37, 5-((5-(2-(((1R,3R)-3-aminocyclopentyl)oxy)phenyl)-1H-pyrazol-3-yl)amino)pyrazine-2-carbonitrile] were, in that order, 100 to 500 nM and more than 1000 nM.
The like results for `CN(C)[C@@H]1CC[C@@H](Oc2cccc(F)c2-c2cc(Nc3cnc(C#N)cn3)n[nH]2)C1` [Example 5-4, 5-((5-(2-(((1R,3R)-3-(dimethylamino)cyclopentyl)oxy)-6-fluorophenyl)-1H-pyrazol-3-yl)amino)pyrazine-2-carbonitrile] were, in that order, 100 to 500 nM and more than 1000 nM.
For the molecule `N#Cc1cnc(Nc2cc(-c3cccc(F)c3O[C@@H]3CC[C@H](N)C3)[nH]n2)cn1` [Example 3-13, 5-((5-(2-(((1R,3S)-3-aminocyclopentyl)oxy)-3-fluorophenyl)-1H-pyrazol-3-yl)amino)pyrazine-2-carbonitrile], the IC50 in test [1] was 100 to 500 nM; in test [2] it was more than 1000 nM.
The like results for `COc1cccc(O[C@H]2CCCC[C@H](N)C2)c1-c1cc(Nc2cnc(C#N)cn2)n[nH]1` [Example 3-7, 5-((5-(2-(((1S,3S)-3-aminocycloheptyl)oxy)-6-methoxyphenyl)-1H-pyrazol-3-yl)amino)pyrazine-2-carbonitrile] were, in that order, not above 10 nM and not above 50 nM.
For the molecule `CN[C@@H]1CC[C@@H](Oc2cc(F)c(C)cc2-c2cc(Nc3cnc(C#N)cn3)n[nH]2)C1` [Example 3-21, 5-((5-(4-fluoro-5-methyl-2-(((1R,3R)-3-(methylamino)cyclopentyl)oxy)phenyl)-1H-pyrazol-3-yl)amino)pyrazine-2-carbonitrile], the IC50 in test [1] is not above 10 nM; in test [2], 50 to 100 nM.
The like results for `COc1cccc(OC2CCC(N)C2C)c1-c1cc(Nc2cnc(C#N)cn2)n[nH]1` (centres unmarked) [Example 1-47, 5-((5-(2-((3-amino-2-methylcyclopentyl)oxy)-6-methoxyphenyl)-1H-pyrazol-3-yl)amino)pyrazine-2-carbonitrile] were, in that order, not above 10 nM and not above 50 nM.
`CN[C@@H]1CC[C@@H](Oc2ccc(Cl)c(F)c2-c2cc(Nc3cnc(C#N)cn3)n[nH]2)C1` [Example 3-22, 5-((5-(3-chloro-2-fluoro-6-(((1R,3R)-3-(methylamino)cyclopentyl)oxy)phenyl)-1H-pyrazol-3-yl)amino)pyrazine-2-carbonitrile]: the IC50 in test [1] was in the range of 10 to 100 nM; in test [2], 100 to 500 nM.
For `Cc1cc(-c2cc(Nc3cnc(C#N)cn3)n[nH]2)c(O[C@@H]2CC[C@@H](N)C2)cc1F` [Example 3-27, 5-((5-(2-(((1R,3R)-3-aminocyclopentyl)oxy)-4-fluoro-5-methylphenyl)-1H-pyrazol-3-yl)amino)pyrazine-2-carbonitrile], the IC50 is not above 10 nM in test [1] and 50 to 100 nM in test [2].
The like results for `COc1c(F)ccc(O[C@H]2C[C@H](N)C2)c1-c1cc(Nc2cnc(C#N)cn2)n[nH]1` [Example 2-3, 5-((5-(6-((1r,3r)-3-aminocyclobutoxy)-3-fluoro-2-methoxyphenyl)-1H-pyrazol-3-yl)amino)pyrazine-2-carbonitrile] were, in that order, 10 to 100 nM and 100 to 500 nM.
On to `COc1cccc(O[C@H]2CC[C@@H]2N)c1-c1cc(Nc2cnc(C#N)cn2)n[nH]1` [Example 3-5, 5-((5-(2-((1S,2S)-2-aminocyclobutoxy)-6-methoxyphenyl)-1H-pyrazol-3-yl)amino)pyrazine-2-carbonitrile], for which the values for the IC50 in test [1] and in test [2] were not above 10 nM and not above 50 nM, respectively.
Consider `COc1cccc(O[C@H]2C[C@H](N)C2)c1-c1cc(Nc2cnc(C#N)cn2)n[nH]1` [Example 1-5, 5-((5-(2-((1r,3r)-3-aminocyclobutoxy)-6-methoxyphenyl)-1H-pyrazol-3-yl)amino)pyrazine-2-carbonitrile], for which the results for the IC50 in test [1] and in test [2] were not above 10 nM and not above 50 nM, respectively.
The like results for `CN[C@H]1C[C@H](Oc2ccccc2-c2cc(Nc3cnc(C#N)cn3)n[nH]2)C1` [Example 1-38, 5-((5-(2-((1r,3r)-3-(methylamino)cyclobutoxy)phenyl)-1H-pyrazol-3-yl)amino)pyrazine-2-carbonitrile] were, in that order, 10 to 100 nM and 100 to 500 nM.
The like results for `COc1cccc(O[C@H]2CC3(C[C@@H](N)C3)C2)c1-c1cc(Nc2cnc(C#N)cn2)n[nH]1` (some centres unmarked) [Example 3-10, 5-((5-(2-((6-aminospiro[3.3]heptan-2-yl)oxy)-6-methoxyphenyl)-1H-pyrazol-3-yl)amino)pyrazine-2-carbonitrile] were, in that order, not above 10 nM and not above 50 nM.
In the case of `Cc1cc(F)c(-c2cc(Nc3cnc(C#N)cn3)n[nH]2)c(O[C@@H]2CC[C@H](N)C2)c1` [Example 5-2, 5-((5-(2-(((1R,3S)-3-aminocyclopentyl)oxy)-6-fluoro-4-methylphenyl)-1H-pyrazol-3-yl)amino)pyrazine-2-carbonitrile], the IC50 was in the range of 10 to 100 nM in test [1] and 100 to 500 nM in test [2].
For `N#Cc1cnc(Nc2cc(-c3c(F)cc(Cl)cc3O[C@@H]3CC[C@H](N)C3)[nH]n2)cn1` [Example 3-24, 5-((5-(2-(((1R,3S)-3-aminocyclopentyl)oxy)-4-chloro-6-fluorophenyl)-1H-pyrazol-3-yl)amino)pyrazine-2-carbonitrile], the figures for the IC50 in test [1] and in test [2] were 10 to 100 nM and 500 to 1000 nM, respectively.
The like results for `N#Cc1cnc(Nc2cc(-c3c(F)cccc3O[C@H]3CC[C@H](N)CC3)[nH]n2)cn1` [Example 1-19, 5-((5-(2-(((1r,4r)-4-aminocyclohexyl)oxy)-6-fluorophenyl)-1H-pyrazol-3-yl)amino)pyrazine-2-carbonitrile] were, in that order, 10 to 100 nM and 100 to 500 nM.
The like results for `Cc1nc(Nc2cc(-c3ccccc3O[C@@H]3CC[C@H](N)C3)[nH]n2)cnc1C#N` [Example 1-40, 5-((5-(2-(((1R,3S)-3-aminocyclopentyl)oxy)phenyl)-1H-pyrazol-3-yl)amino)-3-methylpyrazine-2-carbonitrile] were, in that order, 100 to 500 nM and more than 1000 nM.
As for `COc1ccc(F)c(O[C@@H]2CC[C@H](N)C2)c1-c1cc(Nc2cnc(C#N)cn2)n[nH]1` [Example 1-27, 5-((5-(2-(((1R,3S)-3-aminocyclopentyl)oxy)-3-fluoro-6-methoxyphenyl)-1H-pyrazol-3-yl)amino)pyrazine-2-carbonitrile], the values for the IC50 in test [1] and in test [2] were 10 to 100 nM and 100 to 500 nM, respectively.
In the case of `COc1c(C)ccc(O[C@@H]2CC[C@H](N)C2)c1-c1cc(Nc2cnc(C#N)cn2)n[nH]1` [Example 4-1, 5-((5-(6-(((1R,3S)-3-aminocyclopentyl)oxy)-2-methoxy-3-methylphenyl)-1H-pyrazol-3-yl)amino)pyrazine-2-carbonitrile], the IC50 was in the range of 100 to 500 nM in test [1] and 500 to 1000 nM in test [2].
Take `[2H]C([2H])([2H])Oc1cccc(O[C@@H]2CC[C@H](N)C2)c1-c1cc(Nc2cnc(C#N)cn2)n[nH]1` [Example 3-15, 5-((5-(2-(((1R,3S)-3-aminocyclopentyl)oxy)-6-(methoxy-d3)phenyl)-1H-pyrazol-3-yl)amino)pyrazine-2-carbonitrile]: the values for the IC50 in test [1] and in test [2] were not above 10 nM and not above 50 nM, respectively.
The like results for `COc1cccc(O[C@@H]2CC[C@@H](N)C2)c1-c1cc(Nc2cnc(C#N)cn2)n[nH]1` [Example 1-8, 5-((5-(2-(((1R,3R)-3-aminocyclopentyl)oxy)-6-methoxyphenyl)-lH-pyrazol-3-yl)amino)pyrazine-2-carbonitrile] were, in that order, not above 10 nM and not above 50 nM.
The like results for `COc1cccc(O[C@@H]2CC[C@H]2N)c1-c1cc(Nc2cnc(C#N)cn2)n[nH]1` [Example 3-2, 5-((5-(2-((1R,2R)-2-aminocyclobutoxy)-6-methoxyphenyl)-1H-pyrazol-3-yl)amino)pyrazine-2-carbonitrile] were, in that order, not above 10 nM and not above 50 nM.
As to `CN[C@@H]1CC[C@@H](Oc2cccc(F)c2-c2cc(Nc3cnc(C#N)cn3)n[nH]2)C1` [Example 1-43, 5-((5-(2-fluoro-6-(((1R,3R)-3-(methylamino)cyclopentyl)oxy)phenyl)-1H-pyrazol-3-yl)amino)pyrazine-2-carbonitrile], the IC50 is 10 to 100 nM in test [1] and not above 50 nM in test [2].
The like results for `N#Cc1cnc(Nc2cc(-c3c(F)cccc3O[C@@H]3CCC[C@H]3N)[nH]n2)cn1` [Example 3-40, 5-((5-(2-(((1R,2R)-2-aminocyclopentyl)oxy)-6-fluorophenyl)-1H-pyrazol-3-yl)amino)pyrazine-2-carbonitrile] were, in that order, not above 10 nM and not above 50 nM.

(Values after patent publication US11707462B2, “Checkpoint kinase 1 (CHK1) inhibitors and uses thereof” (Boundless Bio, Inc., priority 2021, dated 2023).)
